# Patent publication US20090246169A1, “INDOLOPYRIDINES AS EG5 KINESIN MODULATORS” (priority 2006, published 2009)
# Test system: RKO p21 colon adenocarcinoma cells, uninduced (proliferating)
# Assay: Alamar Blue cell viability assay, RKO p21 uninduced (proliferating)
# Assay type: cell-based
# Conditions: Homo sapiens; anti-proliferative/cytotoxic activity, 72 hours, without Ponasterone A; read-out: −log EC50 [mol/l] RKO p21 uninduced (proliferating) (converted)
# Protocol: The anti-proliferative/cytotoxic activity of the compounds described herein can be tested on subclones of RKO human colon adenocarcinoma cells (Schmidt et al., Oncogene 19, 2423-2429; 2000) using the Alamar Blue cell viability assay (described in O'Brien et al. Eur J Biochem 267, 5421-5426, 2000). The compounds are dissolved as 10 mM solutions in DMSO and subsequently diluted in semi-logarithmic steps. DMSO dilutions are further diluted 1:100 into Dulbecco's modified Eagle's medium (DMEM) containing 10% fetal calf serum to a final concentration twice as much as the final concentration in the test. RKO subclones are seeded into 96 well flat bottom plates at a density of 4000 cells per well in a volume of 50 μl per well. 24 hours after seeding the 50 μl each of the compound dilutions in DMEM medium are added into each well of the 96 well plate. Each compound dilution is tested as triplicates. Wells containing untreated control cells are filled with 50 μl DMEM medium containing 1% DMSO. The cells are then incubated with the substances for 72 hours at 37° C. in a humidified atmosphere containing 5% carbon dioxide. To determine the viability of the cells, 10 μl of an Alamar Blue solution (Biosource) are added and the fluorescence is measured at an extinction of 544 nm and an emission of 590 nm. For the calculation of the cell viability the emission value from untreated cells is set as 100% viability and the emission rates of treated cells are set in relation to the values of untreated cells. Viabilities are expressed as % values. The Graphpad Prism program is used for the calculation of EC50 values for anti-proliferative/cytotoxic activity out of the obtained dose-response curves.
# To determine the cell cycle specific mode of action, subclones of RKO colon adenocarcinoma cells (RKOp21 or RKOp27 as described by Schmidt et al. in Oncogene 19, 2423-2429; 2000) are seeded into 96 well flat bottom plates at a density of 16000 cells per well in a volume of 50 μl per well in DMEM growth medium with 10% FCS containing 10 μM Ponasterone A. 24 hours after seeding the 50 μl each of the compound dilutions in DMEM medium are added into each well of the 96-well plate. Each compound dilution is tested as triplicates. Wells containing untreated control cells are filled with 50 μl DMEM medium containing 1% DMSO. The cells are then incubated with the substances for 72 hours at 37° C. in a humidified atmosphere containing 5% carbon dioxide. To determine the viability of the cells, 10 μl of an Alamar Blue solution (Biosource) are added and the fluorescence is measured at an extinction of 544 nm and an emission of 590 nm. For the calculation of the cell viability the emission value from untreated cells is set as 100% viability and the emission rates of treated cells are set in relation to the values of untreated cells. Viabilities are expressed as % values. The Graphpad Prism program (GraphPad Software, Inc) is used for the calculation of EC50 values out of the obtained dose-response curves. Viability is compared of proliferating cells grown in the absence of the inducer Ponasterone A, versus viability of cells arrested by the expression of ectopic p27Kip1 induced by Ponasterone A.
# Representative values for anti-proliferation/cytotoxicity [measured as −log EC50 (mol/l)] determined in the aforementioned assays follow from the following tables B1 and B2, in which the numbers of the compounds correspond to the numbers of the examples.
row,SMILES,EC50 [µM]
1,"COc1ccc2[nH]c3c(c2c1)C[C@@]1(C)C(=O)N(CCCN(C)C(C)C)C(=O)N1[C@@H]3c1ccccc1 (racemic) [Example 59, (3aSR, 10RS)-2-[3-(Isopropyl-methyl-amino)-propyl]-6-methoxy-3a-methyl-10-phenyl-3a,4,9,10-tetra-hydro-2,9,10a-triaza-cyclo-penta[b]fluorene-1,3-dione]",≤ 1
2,"COc1ccc2[nH]c3c(c2c1)C[C@@]1(C)C(=O)N(CCCN2CCC2)C(=O)N1[C@@H]3c1ccccc1 (racemic) [Example 60, (3aSR, 10RS)-2-(3-Azetidin-1-yl-propyl)-6-methoxy-3a-methyl-10-phenyl-3a,4,9,10-tetrahydro-2,9,10a-triaza-cyclopenta[b]fluorene-1,3-dione]",≤ 1
3,"COc1ccc2[nH]c3c(c2c1)C[C@@]1(C)C(=O)N(CCCN2CCOCC2)C(=O)N1[C@@H]3c1ccccc1 (racemic) [Example 61, (3aSR, 10RS)-6-Methoxy-3a-methyl-2-(3-morpholin-4-yl-propyl)-10-phenyl-3a,4,9,10-tetrahydro-2,9,10a-triaza-cyclopenta[b]fluorene-1,3-dione]",≤ 1
4,"COc1ccc2[nH]c3c(c2c1)C[C@@]1(C)C(=O)N(CCCN2CCCC2)C(=O)N1[C@@H]3c1ccccc1 (racemic) [Example 62, (3aSR, 10RS)-6-Methoxy-3a-methyl-10-phenyl-2-(3-pyrrolidin-1-yl-propyl)-3a,4,9,10-tetrahydro-2,9,10a-triaza-cyclopenta[b]fluorene-1,3-dione]",≤ 1
5,"COc1ccc2[nH]c3c(c2c1)C[C@@]1(C)C(=O)N(CCCn2ccnc2)C(=O)N1[C@@H]3c1ccccc1 (racemic) [Example 63, (3aSR, 10RS)-2-(3-Imidazol-1-yl-propyl)-6-methoxy-3a-methyl-10-phenyl-3a,4,9,10-tetrahydro-2,9,10a-triaza-cyclopenta[b]fluorene-1,3-dione]",≤ 1
6,"COc1ccc2[nH]c3c(c2c1)C[C@@]1(C)C(=O)N(CCCN2CC=CC2)C(=O)N1[C@@H]3c1ccccc1 (racemic) [Example 64, (3aSR, 10RS)-2-[3-(2,5-Dihydro-pyrrol-1-yl)-propyl]-6-methoxy-3a-methyl-10-phenyl-3a,4,9,10-tetrahydro-2,9,10a-triaza-cyclopenta [b]fluorene-1,3-dione]",≤ 1
7,"COc1ccc2[nH]c3c(c2c1)C[C@@]1(C)C(=O)N(CCCN2CCCCC2)C(=O)N1[C@@H]3c1ccccc1 (racemic) [Example 65, (3aSR, 10RS)-6-Methoxy-3a-methyl-10-phenyl-2-(3-piperidin-1-yl-propyl)-3a,4,9,10-tetrahydro-2,9,10a-triaza-cyclopenta[b]fluorene-1,3-dione]",≤ 1
8,"COc1ccc2[nH]c3c(c2c1)C[C@@]1(C)C(=O)N(CCCN2CCC(C)CC2)C(=O)N1[C@@H]3c1ccccc1 (racemic) [Example 66, (3aSR, 10RS)-6-Methoxy-3a-methyl-2-[3-(4-methyl-piperidin-1-yl)-propyl]-10-phenyl-3a,4,9,10-tetrahydro-2,9,10a-triaza-cyclopenta[b] fluorene-1,3-dione]",≤ 1
9,"COc1ccc2[nH]c3c(c2c1)C[C@@]1(C)C(=O)N(CCCN2CC=CCC2)C(=O)N1[C@@H]3c1ccccc1 (racemic) [Example 67, (3aSR, 10RS)-2-[3-(3,6-Dihydro-2H-pyridin-1-yl)-propyl]-6-methoxy-3a-methyl-10-phenyl-3a,4,9,10-tetra-hydro-2,9,10a-triaza-cyclo-penta[b]fluorene-1,3-dione]",≤ 1
10,"COc1ccc2[nH]c3c(c2c1)C[C@@]1(C)C(=O)N(CCCN2CCN(C)CC2)C(=O)N1[C@@H]3c1ccccc1 (racemic) [Example 68, (3aSR, 10RS)-6-Methoxy-3a-methyl-2-[3-(4-methyl-piperazin-1-yl)-propyl]-10-phenyl-3a,4,9,10-tetrahydro-2,9,10a-triaza-cyclopenta [b]fluorene-1,3-dione]",≤ 1
11,"COc1ccc2[nH]c3c(c2c1)C[C@@]1(C)C(=O)N(CCCN2CCN(C(C)=O)CC2)C(=O)N1[C@@H]3c1ccccc1 (racemic) [Example 69, (3aSR, 10RS)-2-[3-(4-Acetyl-piperazin-1-yl)-propyl]-6-methoxy-3a-methyl-10-phenyl-3a,4,9,10-tetra-hydro-2,9,10a-triaza-cyclo-penta[b]fluorene-1,3-dione]",≤ 1
12,"COCCNCCCN1C(=O)N2[C@H](c3ccccc3)c3[nH]c4ccc(OC)cc4c3C[C@@]2(C)C1=O (racemic) [Example 70, (3aSR, 10RS)-6-Methoxy-2-[3-(2-methoxy-ethylamino)-propyl]-3a-methyl-10-phenyl-3a,4,9,10-tetrahydro-2,9,10a-triaza-cyclopenta[b]fluorene-1,3-dione]",≤ 1
13,"COc1ccc2[nH]c3c(c2c1)C[C@@]1(C)C(=O)N(CCCNC2CC2)C(=O)N1[C@@H]3c1ccccc1 (racemic) [Example 71, (3aSR, 10RS)-2-(3-Cyclo-propylamino-propyl)-6-methoxy-3a-methyl-10-phenyl-3a,4,9,10-tetrahydro-2,9,10a-triaza-cyclopenta[b] fluorene-1,3-dione]",≤ 1
14,"COc1ccc2[nH]c3c(c2c1)C[C@@]1(C)C(=O)N(CCCNC2CCC2)C(=O)N1[C@@H]3c1ccccc1 (racemic) [Example 72, (3aSR, 10RS)-2-(3-Cyclo-butylamino-propyl)-6-methoxy-3a-methyl-10-phenyl-3a,4,9,10-tetrahydro-2,9,10a-triaza-cyclopenta[b] fluorene-1,3-dione]",≤ 1
15,"CNCCCN1C(=O)N2[C@H](c3ccccc3)c3[nH]c4ccc(OC)cc4c3C[C@@]2(C)C1=O (racemic) [Example 73, (3aSR, 10RS)-6-Methoxy-3a-methyl-2-(3-methylamino-propyl)-10-phenyl-3a,4,9,10-tetrahydro-2,9,10a-triaza-cyclopenta[b]fluorene-1,3-dione]",≤ 1
16,"COc1ccc2[nH]c3c(c2c1)C[C@@]1(C)C(=O)N(CCCNCC2CC2)C(=O)N1[C@@H]3c1ccccc1 (racemic) [Example 74, (3aSR, 10RS)-2-[3-(Cyclo-propylmethyl-amino)-propyl]-6-methoxy-3a-methyl-10-phenyl-3a,4,9,10-tetrahydro-2,9,10a-triaza-cyclopenta[b] fluorene-1,3-dione]",≤ 1
17,"COc1ccc2[nH]c3c(c2c1)C[C@@]1(C)C(=O)N(CCCNCCO)C(=O)N1[C@@H]3c1ccccc1 (racemic) [Example 75, (3aSR, 10RS)-2-[3-(2-Hydroxy-ethylamino)-propyl]-6-methoxy-3a-methyl-10-phenyl-3a,4,9,10-tetrahydro-2,9,10a-triaza-cyclopenta[b] fluorene-1,3-dione]",≤ 1
18,"COc1ccc2[nH]c3c(c2c1)C[C@@]1(C)C(=O)N(CCCNC(C)(C)C)C(=O)N1[C@@H]3c1ccccc1 (racemic) [Example 76, (3aSR, 10RS)-2-(3-tert-Butylamino-propyl)-6-methoxy-3a-methyl-10-phenyl-3a,4,9,10-tetrahydro-2,9,10a-triaza-cyclopenta[b] fluorene-1,3-dione]",≤ 1
19,"C=CCNCCCN1C(=O)N2[C@H](c3ccccc3)c3[nH]c4ccc(OC)cc4c3C[C@@]2(C)C1=O (racemic) [Example 77, (3aSR, 10RS)-2-(3-Allyl-amino-propyl)-6-methoxy-3a-methyl-10-phenyl-3a,4,9,10-tetrahydro-2,9,10a-triaza-cyclopenta[b]fluorene-1,3-dione]",≤ 1
